Test results taken from patent publication US8207172B2 (Bayer Intellectual Property GmbH, priority 2004, dated 2012).
Where a name gives a salt, the structure may show the parent alone.

How the values were obtained:
[1] = tested on: A431 cells (human epidermoid carcinoma); experiment: In vitro tumor cell proliferation assay (Cell Titer-Glo luminescent cell viability), A431; assay type: cell-based; settings: A-431, 72 h, 72 hours of drug exposure, ATP luminescence readout, read-out: IC50, anti-proliferative activity (inhibition of cell proliferation)
Outline: (§1)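 A431 or BT474 cells were exposed 72 h at 37°C to serially diluted compounds (final 100 μM down to 64 pM, 0.1% DMSO). Viable cells were read by ATP luminescence (CellTiter-Glo) and IC50 values derived.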

[2] = tested on: BT474 (human breast carcinoma); experiment: In vitro tumor cell proliferation assay (Cell Titer-Glo luminescent cell viability), BT474; assay type: cell-based; settings: BT-474, 72 h, BT474 cells, 72 hours of drug exposure, ATP luminescence readout, read-out: IC50, anti-proliferative activity (inhibition of cell proliferation)
Outline: as §1

IC50 [1] [µM] | IC50 [2] [µM] | Structure (SMILES)
≤ 50 | ≤ 1 | O=C(CCl)N1CCC(n2cc3c(n2)CCc2c-3sc3ncnc(Nc4ccc(OCc5cccc(F)c5)c(Cl)c4)c23)CC1 [Example 218, 2-[1-(chloroacetyl)piperidin-4-yl]-N-{3-chloro-4-[(3-fluorobenzyl)oxy]phenyl}-4,5-dihydro-2H-pyrimido[5′,4′:4,5]thieno[2,3-e]indazol-6-amine]
≤ 50 | ≤ 1 | CS(=O)(=O)OCCn1cc2c(n1)CCc1c-2sc2ncnc(Nc3ccc(OCc4ccccc4)c(Cl)c3)c12 [Example 125, 2-(6-{[4-(benzyloxy)-3-chlorophenyl]amino}-4,5-dihydro-2H-pyrimido[5′,4′:4,5]thieno[2,3-e]indazol-2-yl)ethyl methanesulfonate]
≤ 5 | ≤ 5 | Cc1cccc(COc2ccc(Nc3ncnc4sc5c(c34)CCc3nn(CCN4CCN(C)CC4)cc3-5)cc2Cl)c1 [Example 330, N-{3-chloro-4-[(3-methylbenzyl)oxy]phenyl}-2-[2-(4 methylpiperazin-1-yl)ethyl]-4,5-dihydro-2H-pyrimido[5′,4′:4,5]thieno[2,3-e]indazol-6-amine]
≤ 5 | ≤ 1 | CN(C)[C@H]1CCN(CC(=O)N2CCC(Cn3cc4c(n3)CCc3c-4sc4ncnc(Nc5ccc(OCc6cccc(F)c6)c(Cl)c5)c34)CC2)C1 [Example 235, N-{3-chloro-4-[(3-fluorobenzyl)oxy]phenyl}-2-[(1-{[(3S)-3-(dimethylamino)pyrrolidin-1-yl]acetyl}piperidin-4-yl)methyl]-4,5-dihydro-2H-pyrimido[5′,4′:4,5]thieno[2,3-e]indazol-6-amine]
≤ 5 | ≤ 1 | CC[N+]1(CC)CCC(n2cc3c(n2)CCc2c-3sc3ncnc(Nc4ccc(OCc5cccc(F)c5)c(Cl)c4)c23)CC1 [Example 226, 4-[6-({3-chloro-4-[(3-fluorobenzyl)oxy]phenyl}amino)-4,5-dihydro-2H-pyrimido[5′,4′:4,5]thieno[2,3-e]indazol-2-yl]-1,1-diethylpiperidinium trifluoroacetate]
≤ 5 | ≤ 1 | Fc1cccc(COc2ccc(Nc3ncnc4sc5c(c34)CCc3nn(CCC4CCN(Cc6ccco6)CC4)cc3-5)cc2Cl)c1 [Example 248, N-{3-chloro-4-[(3-fluorobenzyl)oxy]phenyl}-2-{2-[1-(2-furylmethyl)piperidin-4-yl]ethyl}-4,5-dihydro-2H-pyrimido[5′,4′:4,5]thieno[2,3-e]indazol-6-amine]
≤ 5 | ≤ 1 | Fc1cccc(COc2ccc(Nc3ncnc4sc5c(c34)CCc3nn(CCN4CCC(N6CCCCC6)CC4)cc3-5)cc2Cl)c1 [Example 70, 2-[2-(1,4′-bipiperidin-1′-yl)ethyl]-N-{3-chloro-4-[(3-fluorobenzyl)oxy]phenyl}-4,5-dihydro-2H-pyrimido[5′,4′:4,5]thieno[2,3-e]indazol-6-amine]
≤ 5 | ≤ 1 | CN1CCN(CCn2cc3c(n2)CCc2c-3sc3ncnc(Nc4ccc(OCc5ccccc5F)c(Cl)c4)c23)CC1 [Example 334, N-{3-chloro-4-[(2-fluorobenzyl)oxy]phenyl}-2-[2-(4-methylpiperazin-1-yl)ethyl]-4,5-dihydro-2H-pyrimido[5′,4′:4,5]thieno[2,3-e]indazol-6-amine]
≤ 5 | ≤ 1 | Fc1cccc(COc2ccc(Nc3ncnc4sc5c(c34)CCc3nn(CCN4CCOCC4)cc3-5)cc2Cl)c1 [Example 63, N-{3-chloro-4-[(3-fluorobenzyl)oxy]phenyl}-2-(2-morpholin-4-ylethyl)-4,5-dihydro-2H-pyrimido[5′,4′:4,5]thieno[2,3-e]indazol-6-amine]
≤ 5 | ≤ 5 | CN1CCN(CCn2cc3c(n2)CCc2c-3sc3ncnc(Nc4ccc5nn(Cc6cccc(F)c6)cc5c4)c23)CC1 [Example 327, N-[2-(3-fluorobenzyl)-2H-indazol-5-yl]-2-[2-(4-methylpiperazin-1-yl)ethyl]-4,5-dihydro-2H-pyrimido[5′,4′:4,5]thieno[2,3-e]indazol-6-amine]

Further lines, the compound ahead of its results:

Structure (SMILES) | IC50 [1] [µM] | IC50 [2] [µM]
CCOC(=O)Cn1ncc2c1CCc1c-2sc2ncnc(Nc3ccc(OCc4cccc(F)c4)c(Cl)c3)c12 [Example 190, ethyl [6-({3-chloro-4-[(3-fluorobenzyl)oxy]phenyl}amino)-4,5-dihydro-3H-pyrimido[5′,4′:4,5]thieno[2,3-e]indazol-3-yl]acetate] | ≤ 50 | ≤ 1
O=C(Cn1ncc2c1CCc1c-2sc2ncnc(Nc3ccc(OCc4cccc(F)c4)c(Cl)c3)c12)NCCO [Example 209, 2-[6-({3-chloro-4-[(3-fluorobenzyl)oxy]phenyl}amino)-4,5-dihydro-3H-pyrimido[5′,4′:4,5]thieno[2,3-e]indazol-3-yl]-N-(2-hydroxyethyl]acetamide] | ≤ 50 | ≤ 1
OCCn1ncc2c1CCc1c-2sc2ncnc(Nc3ccc(F)c(Cl)c3)c12 [Example 88, 2-{6-[(3-chloro-4-fluorophenyl)amino]-4,5-dihydro-3H-pyrimido[5′,4′:4,5]thieno[2,3-e]indazol-3-yl}ethanol] | ≤ 5 | ≤ 5
CN(C)[C@H]1CCN(CCn2ncc3c2CCc2c-3sc3ncnc(Nc4ccc(F)c(Cl)c4)c23)C1 [Example 95, N-(3-chloro-4-fluorophenyl)-3-{2-[3-(dimethylamino)pyrrolidin-1-yl]ethyl}-4,5-dihydro-3H-pyrimido[5′,4′:4,5]thieno[2,3-e]indazol-6-amine] | ≤ 5 | ≤ 1
CN1CCN(CCn2cc3c(n2)CCc2c-3sc3ncnc(Nc4ccc(Cl)c(Cl)c4)c23)CC1 [Example 45, N-(3,4-dichlorophenyl)-2-[2-(4-methylpiperazin-1-yl)ethyl]-4,5-dihydro-2H-pyrimido[5′,4′:4,5]thieno[2,3-e]indazol-6-amine] | ≤ 5 | ≤ 1
Fc1ccc(Nc2ncnc3sc4c(c23)CCc2nn(CCNCCN3CCCC3)cc2-4)cc1Cl [Example 18, N-(3-chloro-4-fluorophenyl)-2-{2-[(2-pyrrolidin-1-ylethyl)amino]ethyl}-4,5-dihydro-2H-pyrimido[5′,4′:4,5]thieno[2,3-e]indazol-6-amine] | ≤ 50 | ≤ 50
OCCN(CCO)CCn1ncc2c1CCc1c-2sc2ncnc(Nc3ccc(OCc4cccc(F)c4)c(Cl)c3)c12 [Example 262, 2,2′-({2-[6-({3-chloro-4-[(3-fluorobenzyl)oxy]phenyl}amino)-4,5-dihydro-3H-pyrimido[5′,4′:4,5]thieno[2,3-e]indazol-3-yl]ethyl}imino)diethanol] | ≤ 50 | ≤ 1
OC[C@H](O)Cn1cc2c(n1)CCc1c-2sc2ncnc(Nc3ccc(F)c(Cl)c3)c12 [Example 44, (R)-3-[6-(3-Chloro-4-fluoro-phenylamino)-4,5-dihydro-10-thia-2,3,7,9-tetraaza-cyclopenta[a]fluoren-2-yl}-propane-1,2-diol] | ≤ 5 | ≤ 1
COc1cccc(COc2ccc(Nc3ncnc4sc5c(c34)CCc3c-5cnn3CCN3CCN(C)CC3)cc2Cl)c1 [Example 318, N-{3-chloro-4-[(3-methoxybenzyl)oxy]phenyl}-3-[2-(4-methylpiperazin-1-yl)ethyl]-4,5-dihydro-3H-pyrimido[5′,4′:4,5]thieno[2,3-e]indazol-6-amine] | ≤ 5 | ≤ 5
